Source: ChEMBL document CHEMBL4673185 (RSC Med Chem, 2020)
pEC50: −log10 of the molar value. Positions of bridges follow the written chain, without caps; N, C: chain ends. Non-standard residues stand in square brackets, D forms with d. Residues, ends and D or L forms follow the SMILES beside them. Gla = N[C@@H](CC(C(=O)O)C(=O)O)C(=O)O

Key:
[1] = Half life in iv dosed Wistar rat serum measured after 2 to 20 mins by HPLC analysis; format: ADME, organism-based; settings: time 2-20 min
Insulin receptor = Insulin receptor (Homo sapiens, UniProt P06213); test: Activation of human IR-B expressed in mouse NIH3T3 cells assessed as increase in Akt phosphorylation at Ser473 residue incubated for 30 mins by HTRF method; format: cell-based
[2] = target: Neurotensin receptor type 1 (Rattus norvegicus, UniProt P20789); test: Agonist activity at rat NTR1 expressed in CHO cells assessed as effect on [3H] phosphoinositide accumulation using neurotensin (1 to 13 residues) as substrate by radioactive assay; format: cell-based
[3] = Agonist activity at Zebra fish V2R expressed in African green monkey COS-1 cells assessed as increase in intracellular calcium response by FLIPR assay; format: cell-based; settings: Danio rerio
[4] = Agonist activity at Zebra fish V1a1R expressed in African green monkey COS-1 cells assessed as increase in intracellular calcium response by FLIPR assay; format: cell-based; settings: Danio rerio
Vasopressin V1b receptor = target: T1, Vasopressin V1b receptor (Homo sapiens, UniProt P47901); test: Agonist activity at human V1bR expressed in African green monkey COS-1 cells assessed as increase in intracellular calcium response by FLIPR assay; format: functional, cell-based
T1 sequence (P47901 whole entry): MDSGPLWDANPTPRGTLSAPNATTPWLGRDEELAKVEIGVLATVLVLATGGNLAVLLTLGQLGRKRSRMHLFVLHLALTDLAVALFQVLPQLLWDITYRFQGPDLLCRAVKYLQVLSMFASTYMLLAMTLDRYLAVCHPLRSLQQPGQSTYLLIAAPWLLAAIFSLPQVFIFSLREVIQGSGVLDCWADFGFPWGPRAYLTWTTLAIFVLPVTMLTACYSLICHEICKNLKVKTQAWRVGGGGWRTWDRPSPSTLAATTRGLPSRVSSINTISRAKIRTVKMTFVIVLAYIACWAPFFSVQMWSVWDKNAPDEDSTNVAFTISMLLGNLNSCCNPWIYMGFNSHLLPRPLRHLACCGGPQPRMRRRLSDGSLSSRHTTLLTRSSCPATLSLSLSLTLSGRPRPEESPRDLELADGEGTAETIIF

[5] = target: Mas-related G-protein coupled receptor member X1 (Homo sapiens, UniProt Q96LB2); test: Activation of human MrgprX1 expressed in BAM 8-22 activated-rat KNRK cells by fura2-AM dye based calcium imaging assay; format: cell-based
Mas-related G-protein coupled receptor member X1, sequence (Q96LB2 whole entry): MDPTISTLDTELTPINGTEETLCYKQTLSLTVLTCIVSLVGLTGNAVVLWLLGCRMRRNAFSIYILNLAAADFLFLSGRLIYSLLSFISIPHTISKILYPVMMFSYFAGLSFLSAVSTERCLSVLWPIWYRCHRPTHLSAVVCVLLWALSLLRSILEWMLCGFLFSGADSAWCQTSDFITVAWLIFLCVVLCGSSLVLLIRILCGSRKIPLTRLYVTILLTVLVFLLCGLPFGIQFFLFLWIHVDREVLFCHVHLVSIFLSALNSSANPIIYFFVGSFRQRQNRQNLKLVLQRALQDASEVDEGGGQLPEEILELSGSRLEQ

Insulin receptor, sequence (P06213 28-758 limits assumed): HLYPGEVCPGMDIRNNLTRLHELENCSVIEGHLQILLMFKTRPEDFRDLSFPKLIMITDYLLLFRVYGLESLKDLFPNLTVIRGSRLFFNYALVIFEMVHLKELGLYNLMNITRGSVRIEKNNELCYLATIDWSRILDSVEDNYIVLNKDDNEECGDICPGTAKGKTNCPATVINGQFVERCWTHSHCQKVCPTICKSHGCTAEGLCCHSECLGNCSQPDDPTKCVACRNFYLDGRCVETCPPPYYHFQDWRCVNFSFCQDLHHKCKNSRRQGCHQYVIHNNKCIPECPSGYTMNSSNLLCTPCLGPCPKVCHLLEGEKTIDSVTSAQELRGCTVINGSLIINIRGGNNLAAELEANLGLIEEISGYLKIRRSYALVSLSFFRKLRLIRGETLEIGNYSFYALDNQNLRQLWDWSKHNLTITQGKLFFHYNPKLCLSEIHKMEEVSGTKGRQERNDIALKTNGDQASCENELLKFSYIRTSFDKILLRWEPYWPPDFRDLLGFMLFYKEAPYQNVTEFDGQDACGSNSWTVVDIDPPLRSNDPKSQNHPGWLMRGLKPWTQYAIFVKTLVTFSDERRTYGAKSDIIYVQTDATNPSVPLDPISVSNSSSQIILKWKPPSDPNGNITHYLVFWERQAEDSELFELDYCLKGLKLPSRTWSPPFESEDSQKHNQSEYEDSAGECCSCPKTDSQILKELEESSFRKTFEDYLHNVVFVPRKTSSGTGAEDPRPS
Insulin receptor, sequence (P06213 763-1382 limits assumed): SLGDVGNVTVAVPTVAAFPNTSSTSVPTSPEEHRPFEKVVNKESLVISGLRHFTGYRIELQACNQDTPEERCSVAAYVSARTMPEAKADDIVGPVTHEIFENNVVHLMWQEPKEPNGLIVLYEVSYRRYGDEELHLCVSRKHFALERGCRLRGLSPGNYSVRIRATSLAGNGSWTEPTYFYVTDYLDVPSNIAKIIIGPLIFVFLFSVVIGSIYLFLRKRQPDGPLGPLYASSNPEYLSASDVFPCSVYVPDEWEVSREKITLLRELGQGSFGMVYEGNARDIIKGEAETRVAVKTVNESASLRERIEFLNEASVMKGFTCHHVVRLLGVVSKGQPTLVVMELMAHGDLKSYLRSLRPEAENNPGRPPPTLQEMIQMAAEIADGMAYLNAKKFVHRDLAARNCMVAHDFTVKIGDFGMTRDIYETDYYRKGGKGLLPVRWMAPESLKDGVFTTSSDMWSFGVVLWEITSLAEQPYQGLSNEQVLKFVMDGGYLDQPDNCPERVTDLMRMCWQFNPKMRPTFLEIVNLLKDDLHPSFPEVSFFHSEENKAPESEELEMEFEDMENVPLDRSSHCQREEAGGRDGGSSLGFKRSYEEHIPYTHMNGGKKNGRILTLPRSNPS
Neurotensin receptor type 1, sequence (P20789 whole entry, the tested form may be a part): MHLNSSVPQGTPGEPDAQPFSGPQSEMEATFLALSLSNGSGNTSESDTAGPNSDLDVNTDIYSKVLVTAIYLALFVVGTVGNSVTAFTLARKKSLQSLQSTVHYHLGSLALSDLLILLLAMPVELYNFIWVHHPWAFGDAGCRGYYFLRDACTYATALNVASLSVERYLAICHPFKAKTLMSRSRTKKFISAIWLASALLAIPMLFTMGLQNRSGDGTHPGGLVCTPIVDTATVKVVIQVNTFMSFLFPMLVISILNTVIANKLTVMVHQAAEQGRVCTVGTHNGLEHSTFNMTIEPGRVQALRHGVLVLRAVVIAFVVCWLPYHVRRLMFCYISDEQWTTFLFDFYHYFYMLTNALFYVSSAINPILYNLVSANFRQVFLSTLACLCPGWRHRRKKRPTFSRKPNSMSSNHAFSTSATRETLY

With `CC[C@H](C)[C@H](NC(=O)[C@H](Cc1ccccc1)NC(=O)[C@H](CCC(=O)O)NC(=O)[C@H](CCCCN)NC(=O)[C@H](C)NC(=O)[C@H](C)NC(=O)[C@H](CCC(N)=O)NC(=O)CNC(=O)[C@H](CCC(=O)O)NC(=O)[C@H](CC(C)C)NC(=O)[C@H](Cc1ccc(O)cc1)NC(=O)[C@H](CO)NC(=O)[C@H](CO)NC(=O)[C@@H](NC(=O)[C@H](CC(=O)O)NC(=O)[C@H](CO)NC(=O)[C@@H](NC(=O)[C@H](Cc1ccccc1)NC(=O)[C@@H](NC(=O)CNC(=O)[C@H](CCC(=O)O)NC(=O)[C@H](C)NC(=O)[C@@H](N)Cc1cnc[nH]1)[C@@H](C)O)[C@@H](C)O)C(C)C)C(=O)N[C@@H](C)C(=O)N[C@@H](Cc1c[nH]c2ccccc12)C(=O)N[C@@H](CC(C)C)C(=O)N[C@H](C(=O)N[C@@H](CCCCN)C(=O)NCC(=O)N[C@@H](CCCNC(=N)N)C(=O)O)C(C)C` the half-life [1] was 2 min.
With `CC[C@H](C)[C@H](NC(=O)[C@H](CC(C)C)NC(=O)[C@@H](Cc1ccc(O)cc1)NC(=O)[C@H](CCC(N)=O)NC(=O)[C@H](CC(N)=O)NC(=O)[C@H](Cc1ccc(O)cc1)NC(=O)[C@H](CCC(N)=O)NC(=O)[C@H](CC(C)C)NC(=O)[C@@H](Cc1ccc(O)cc1)NC(=O)[C@@H](Cc1ccc(O)cc1)NC(=O)[C@H](CCC(=O)O)NC(=O)CN)C(=O)N[C@@H](CCCNC(=N)N)C(=O)N[C@H](Cc1ccc(O)cc1)C(=O)N[C@@H](CCCCN)C(=O)N[C@@H](CO)C(=O)N[C@@H](CC(N)=O)C(N)=O` the pEC50 (Insulin receptor) was 7.92.
In the case of `CC[C@H](C)[C@@H]1NC(=O)[C@H](Cc2ccc(O)cc2)NC(=O)[C@H](CO)NC(=O)[C@H](CC(N)=O)NC(=O)[C@@H]2CCCN2C(=O)[C@H]([C@@H](C)CC)NC(=O)[C@H](CC(C(=O)O)C(=O)O)NC(=O)[C@H](CO)NC(=O)CNC(=O)[C@@H]2CSSC[C@@H]3NC(=O)[C@@H](NC(=O)[C@H](Cc4cnc[nH]4)NC(=O)[C@H](CC(C(=O)O)C(=O)O)NC(=O)[C@@H](NC(=O)[C@@H](NC(=O)CN)C(C)C)C(C)C)CSSC[C@H](NC(=O)[C@@H]4CCCN4C(=O)[C@H](CCCNC(=N)N)NC(=O)[C@H](Cc4cnc[nH]4)NC3=O)C(=O)N[C@@H](CO)C(=O)N[C@@H](CC(N)=O)C(=O)N[C@@H](C)C(=O)N[C@@H](CCC(=O)O)C(=O)N[C@@H](Cc3ccccc3)C(=O)N[C@@H](CCCCN)C(=O)N[C@@H](CCCCN)C(=O)N[C@@H](Cc3ccccc3)C(=O)N[C@@H](CSSC[C@H](C(=O)N[C@@H](Cc3ccccc3)C(=O)O)NC(=O)[C@H](CC(C)C)NC(=O)[C@H](CC(=O)O)NC1=O)C(=O)N[C@@H](CC(N)=O)C(=O)N[C@@H](CO)C(=O)N[C@@H](CC(=O)O)C(=O)N[C@@H]([C@@H](C)O)C(=O)N1CC(O)C[C@H]1C(=O)N[C@@H](CCCCN)C(=O)N[C@@H](Cc1ccc(O)cc1)C(=O)N[C@@H](CCCNC(=N)N)C(=O)N2` (some centres undefined), the pEC50 (Insulin receptor) was 7.92.
With `CC[C@H](C)[C@@H]1NC(=O)[C@H](CC(=O)O)NC(=O)[C@H](CO)NC(=O)CNC(=O)[C@@H]2CSSC[C@@H]3NC(=O)[C@@H](NC(=O)[C@H](Cc4cnc[nH]4)NC(=O)[C@H](CC(C(=O)O)C(=O)O)NC(=O)[C@@H](NC(=O)[C@@H](NC(=O)CN)C(C)C)C(C)C)CSSC[C@H](NC(=O)[C@@H]4CCCN4C(=O)[C@H](CCCNC(=N)N)NC(=O)[C@H](Cc4cnc[nH]4)NC3=O)C(=O)N[C@@H](CO)C(=O)N[C@@H](CC(N)=O)C(=O)N[C@@H](C)C(=O)N[C@@H](CCC(=O)O)C(=O)N[C@@H](Cc3ccccc3)C(=O)N[C@@H](CCCCN)C(=O)N[C@@H](CCCCN)C(=O)N[C@@H](Cc3ccccc3)C(=O)N[C@@H](CSSC[C@H](C(=O)N[C@@H](Cc3ccccc3)C(=O)O)NC(=O)[C@H](CC(C)C)NC(=O)[C@H](CC(=O)O)NC(=O)[C@H](CCSC)NC(=O)[C@H](Cc3ccc(O)cc3)NC(=O)[C@H](CO)NC(=O)[C@H](CC(N)=O)NC(=O)[C@@H]3CCCN3C1=O)C(=O)N[C@@H](CC(N)=O)C(=O)N[C@@H](CO)C(=O)N[C@@H](CC(=O)O)C(=O)N[C@@H]([C@@H](C)O)C(=O)N1CC(O)C[C@H]1C(=O)N[C@@H](CCCCN)C(=O)N[C@@H](Cc1ccc(O)cc1)C(=O)N[C@@H](CCCNC(=N)N)C(=O)N2` (some centres undefined) the pEC50 (Insulin receptor) was 7.92.
`CC[C@H](C)[C@H](NC(=O)[C@H](CC(C)C)NC(=O)[C@@H](Cc1ccc(O)cc1)NC(=O)[C@H](CCC(N)=O)NC(=O)[C@H](CC(N)=O)NC(=O)[C@H](Cc1ccc(O)cc1)NC(=O)[C@H](CCC(N)=O)NC(=O)[C@H](CC(C)C)NC(=O)[C@@H](Cc1ccc(O)cc1)NC(=O)[C@@H](Cc1ccc(O)cc1)NC(=O)[C@H](CCC(=O)O)NC(=O)CN)C(=O)N[C@@H](CCCNC(=N)N)C(=O)N[C@H](Cc1ccc(O)cc1)C(=O)N[C@@H](CCCCN)C(=O)N[C@@H](CO)C(=O)N[C@@H](CC(N)=O)C(=O)O` gave a pEC50 [2] of 7.70.
`CC(C)C[C@H](NC(=O)[C@H](Cc1ccccc1)NC(=O)[C@@H](N)CS)C(=O)NCC(=O)N[C@@H](CC(N)=O)C(=O)N[C@@H](CS)C(=O)N1CCC[C@H]1C(=O)N[C@@H](CC(=O)O)C(=O)N[C@@H](CO)C(N)=O` (H-CFLGNCPDS-NH2) showed a pEC50 [3] of 6.00.
Compound `CC(C)C[C@H](NC(=O)[C@H](Cc1ccccc1)NC(=O)[C@@H](N)CS)C(=O)NCC(=O)N[C@@H](CC(N)=O)C(=O)N[C@@H](CS)C(=O)N1CCC[C@H]1C(=O)N[C@@H](CC(=O)O)C(=O)N[C@@H](CO)C(=O)O` (H-CFLGNCPDS-OH) has a pEC50 [3] of 6.00.
`NC(=O)C[C@H](NC(=O)CNC(=O)[C@@H]1CCCN1C(=O)[C@H](Cc1ccccc1)NC(=O)[C@@H](N)CS)C(=O)N[C@@H](CS)C(=O)N1CCC[C@H]1C(=O)N[C@@H](CC(=O)O)C(=O)N[C@@H](CO)C(N)=O` (H-CFPGNCPDS-NH2) gave a pEC50 [4] of 6.00 and a pEC50 (Vasopressin V1b receptor) of 6.00.
With H-AWSGPRNRFVRF-OH the pEC50 [5] was 5.74.
Compound “H-GIV[Gla]DCCYNDCTDEKLKEYCHTLQSDSGTTLVRRRLCGS[Gla]LVTYLGELCLGN-OH (disulfide 6-11, 7-37, 20-49)” has a pEC50 (Insulin receptor) of 7.92.
“H-GVV[Gla]HCCKRACSNA[Gla]FMQFCNSDTPWNRCGSQITDSYR[Gla]LCPH-OH (disulfide 6-11, 7-29, 20-41)” gave a pEC50 (Insulin receptor) of 7.92.
With H-HSGFLLAWSGPRNRFVRF-OH the pEC50 [5] was 5.74.
With H-HSGILLAWSGPRNRFVRI-OH the pEC50 [5] was 6.30.
